Results reported in patent US6834238B1, “Method for identifying optical contrast enhancing agents” (Cytoscan Sciences LLC, priority 1998, dated 2004).

How the values were obtained:
[1] = test system: acute rat hippocampal slice; experiment: imaging of intrinsic optical signals in hippocampal slice; assay type: cell-based
Excerpt: For imaging of intrinsic optical signals, the tissue was illuminated with a beam of white light (tungsten filament light and lens system; Dedotec USA, Lodi, N.J.) directed through the microscope condenser. The light was controlled and regulated (power supply: Lambda Electronics, Melville, N.Y.) to minimize fluctuations and filtered (695 nm long-pass) so that the slice was transilluminated with long wavelengths (red). Image frames were acquired with a charge-coupled device camera (Dage-MTI) at 30 Hz and were digitized at 8 bits with a spatial resolution of 512 by 480 pixels by means of an Imaging Technology Series 151 imaging system; gains and offsets of the camera-control box and the analog-to-digital board were adjusted to optimize the sensitivity of the system. […] To increase signal-to-noise ratio, an averaged image was composed from 16 individual image-frames, integrated over 0.5 s and averaged together. […] Pseudocolored images were calculated by subtracting the first control image from subsequently acquired images and assigned a color lookup table to the pixel values. For these images, usually a linear low-pass filter was used to remove high-frequency noise and a linear-histogram stretch was used to map the pixel values over the dynamic range of the system. All operations on these images were linear so that quantitative information was preserved. […]

[2] = test system: acute rat hippocampal slice; experiment: stimulation-evoked afterdischarge, extracellular field recordings in hippocampal slice; assay type: cell-based
Method: Sprague-Dawley rats (male and female; 25 to 35 days old) were prepared as described in Aghajanian, A. K. and Rasmussen, K., Synapse 31:331, 1989; and Buckmaster, P. S., Strowbridge, B. W., Schwartzdroin, P. A., J. Neurophysiol. 70:1281, 1993. In most hippocampal slice experiments, simultaneous extracellular field electrode recordings were obtained from CA1 and CA3 areas. For stimulation-evoked afterdischarge (13 slices, 8 animals), the concentration of Mg^2+ in the bathing medium was reduced to 0.9 mM. A bipolar tungsten stimulating electrode was placed on the Schaffer collaterals to evoke synaptically driven field responses in CA1; stimuli consisted to 100 to 300-μs-duration pulses at an intensity of four times population-spike threshold. Afterdischarges were evoked by a 2-s train of such stimuli delivered at 60 Hz. […] In all treatments, perfusion with furosemide-containing medium was begun after a consistent level of bursting had been established.
FIG. 2A1 illustrates that two seconds of electrical stimulation at 60 Hz elicited afterdischarge activity. […] The color bar indicates increasing magnitude of activity-evoked optical changes from the bottom to the top of the bar. The region of maximum optical change (red, yellow) corresponds to the apical and basal dendritic regions of CA1 on either side of the stimulating electrode. FIGS. 2B1-2BC illustrate responses to electrical stimulation following 20 minutes of perfusion with medium containing 2.5 mM furosemide.

hippocampal slices = experiment: spontaneous interictal-like bursts in hippocampal slices; assay type: cell-based, rat
[3] = following treatment with furosemide, FIG. 3E

NS(=O)(=O)c1cc(C(=O)O)c(NCc2ccco2)cc1Cl [furosemide]
stimulation-evoked optical changes ([1]; 20 minutes of perfusion with medium containing 2.5 mM furosemide, FIG. 2BC): blocked | intrinsic optical signal (peak optical change during electrical stimulation) [1, 3]: blocks | electrical afterdischarge activity ([2]; 20 minutes of perfusion with medium containing 2.5 mM furosemide, 2 s stimulation at 60 Hz, FIG. 2B2): blocked | field response to the test pulse ([2]; 20 minutes of perfusion with medium containing 2.5 mM furosemide, FIG. 2B1): hyperexcitable field response (multiple population spikes) | reversibility of the effect after washout ([2]; following 45 minutes of perfusion with normal bathing medium, FIGS. 2C1-2C3): restoration of the initial response pattern | epileptiform activity during electrical stimulation [2, 3]: blocks

[K+] [K^+]
spontaneous interictal-like bursts, average (hippocampal slices; 10 mM K+ in bathing medium, 6 slices, 4 animals): 81 bursts/min

Nc1ccncc1 [4-AP]
spontaneous interictal-like bursts, average (hippocampal slices; 200 to 300 μM 4-AP in bathing medium, 4 slices, 2 animals): 33 burst/min
